In US12636284B2, “Compositions for use in the prevention and/or treatment of intellectual disability and neurodegenerative diseases in a subject with down syndrome” (UNIVERSITA' DEGLI STUDI DI ROMA “LA SAPIENZA”, priority 2021, dated 2026):

Key:
DYRK1A protein = DYRK1A protein levels in primary hippocampal neurons isolated from Ts2Cje mice; assay type: cell-based, mouse; conditions: 1, 5, 10 μM for 24 hours, vs untreated Ts2Cje
Method: For Western blots, 20 μg of proteins from the hippocampus of mice belonging to the four experimental groups were separated by 4-15% SDS-PAGE Criterion™ TGX (Tris-Glyicine eXtended) Stain-Free™ (Bio-rad, Hercules, CAUSE). This type of gel allows a rapid acquisition of the protein run in the ultraviolet (UV) by Chemidoc™ MP imaging systems (Bio-rad, Hercules, CA, USA). Therefore, the gel, once the image has been acquired, represents the total of the loaded proteins (Total Load), which will then be used to normalize the specific proteins to be examined. After electrophoresis and gel imaging, proteins are transferred via the semi-dry TransBlot Turbo apparatus (Bio-Rad Laboratories) onto nitrocellulose membranes (Bio-Rad, Hercules, CA, USA). Nitrocellulose membranes are blocked with 3% bovine serum albumin (BSA) in a solution of Tween 20-TBS and incubated overnight at 4° C. using specific primary antibodies: p(T216)-GSK3B (1:1000, Santa Cruz, #sc-135653), p(S9)-GSK3β (1:1000, Cell Signaling, #5558S), GSK3β (1:1000 Abcam, #93926) and DYRK1A (1:1000, Cell Signaling, #8765S), MAPK44/42 (1:1000, Cell Signaling, #9102), p(Thr202/Tyr204)-MAPK44/42 (1 1000, Cell Signaling, #9101), Akt (1:2000, Bio-Rad, # vma00253K), p(S473) Akt (1:1000, Cell Signaling, #4060S). After three washes with a T-TBS buffer solution, membranes were incubated for 1 hour at room temperature with the secondary antibodies. Secondary antibodies with peroxidase activity are anti-mouse or anti-rabbit (1:5000, Bio-rad, Hercules, CA, USA). Membranes were developed using Clarity Enhanced Chemiluminescence (ECL), a chemiluminescent substrate (Bio-rad, Hercules, CA, USA) and acquired with Chemidoc Mp (Bio-rad, Hercules, CA, USA). Finally, the results obtained were analyzed using the ImageLab program (Bio-rad, Hercules, CA, USA).
In order to isolate primary hippocampal neurons, hippocampi from Ts and euploid mice were mechanically dissociated in PBS (with Ca^2+ and Mg^2−) and centrifuged (3 minutes, 1100 rpm, 25° C.). […]

GSK3b protein = experiment: GSK3b activation (pSer9/pTyr216 ratio) in primary hippocampal neurons isolated from Ts2Cje mice; assay type: cell-based, mouse; conditions: 1, 5, 10 μM for 24 hours
Method: For Western blots, 20 μg of proteins from the hippocampus of mice belonging to the four experimental groups were separated by 4-15% SDS-PAGE CriterionTM […] (Bio-rad, Hercules, CAUSE). […] Therefore, the gel, once the image has been acquired, represents the total of the loaded proteins (Total Load), which will then be used to normalize the specific proteins to be examined. After electrophoresis and gel imaging, proteins are transferred via the semi-dry TransBlot Turbo apparatus (Bio-Rad Laboratories) onto nitrocellulose membranes (Bio-Rad, Hercules, CA, USA). Nitrocellulose membranes are blocked with 3% bovine serum albumin (BSA) in a solution of Tween 20-TBS and incubated overnight at 4° C. using specific primary antibodies: p([…])-GSK3B (1:1000, Santa Cruz, #sc-135653), p(S9)-GSK3β (1:1000, Cell Signaling, #5558S), GSK3β (1:1000 Abcam, #93926) and DYRK1A (1:1000, Cell Signaling, #8765S), MAPK44/42 (1:1000, Cell Signaling, #9102), p[…])-MAPK44/42 (1 1000, Cell Signaling, #9101), Akt (1:2000, Bio-Rad, # vma00253K), p(S473) Akt (1:1000, Cell Signaling, #4060S). After three washes with a T-TBS buffer solution, membranes were incubated for 1 hour at room temperature with the secondary antibodies. Secondary antibodies with peroxidase activity are anti-mouse or anti-rabbit (1:5000, Bio-rad, Hercules, CA, USA). […] Finally, the results obtained were analyzed using the ImageLab program (Bio-rad, Hercules, CA, USA). […] In order to isolate primary hippocampal neurons, hippocampi from Ts and euploid mice were mechanically dissociated in PBS (with Ca^2+ and […]) and centrifuged (3 minutes, 1100 rpm, 25° C.). Subsequently, the pellet was resuspended in 0.25% trypsin solution and centrifuged further for 3 minutes at 1100 rpm at Tamb. At this point, the cell extract was resuspended in MEM 1 culture medium (Minimum Essential Medium complemented with fetal bovine serum (FBS-1%), L-glutamine 200 mM (1%), glucose 25 mM (1%), gentamicin 0.1 mg/ml) and centrifuged for 10 minutes, 1100 rpm at 25° C. […]

Row | Compound | levels of the DYRK1A protein in Ts2Cje neurons (DYRK1A protein) | activity of the GSK3B protein in Ts2Cje neurons (GSK3b protein)
1 | Cn1c(=O)cc(N2CCC[C@@H](N)C2)n(Cc2ccccc2C#N)c1=O [alogliptin] | significant reduction | significant increase
2 | N#C[C@@H]1CCCN1C(=O)CNC12CC3CC(CC(O)(C3)C1)C2 [vildagliptin] | significant reduction | significant increase
